Test results published in patent publication US4745185A, “D-arabinose-1,5-diphosphate salts and methods for the treatment of diabetes” (McNeilab, Inc., priority 1985, dated 1988).

Columns and labels:
[1] = target: T1, fructose-1,6-biphosphatase (Rattus norvegicus, UniProt P19112); assay: Rat liver fructose-1,6-biphosphatase inhibition; assay type: biochemical; details: competitive inhibitors; rat liver enzyme, in vitro
T1 construct: from tissue; host or cells: rat liver
T1 sequence (P19112 2-363 limits assumed): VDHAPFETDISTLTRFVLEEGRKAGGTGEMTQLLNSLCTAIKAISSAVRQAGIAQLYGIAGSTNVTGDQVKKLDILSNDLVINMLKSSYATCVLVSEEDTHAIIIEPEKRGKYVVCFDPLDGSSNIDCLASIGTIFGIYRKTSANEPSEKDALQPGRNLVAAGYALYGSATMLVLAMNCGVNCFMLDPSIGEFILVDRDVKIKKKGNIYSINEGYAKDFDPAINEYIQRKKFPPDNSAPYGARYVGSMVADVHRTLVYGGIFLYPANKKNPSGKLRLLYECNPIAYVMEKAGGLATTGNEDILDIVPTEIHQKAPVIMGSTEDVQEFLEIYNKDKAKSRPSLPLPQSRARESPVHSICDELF
From the text: (§1) The utility of compounds of the invention of formula (I) as hypoglycemic agents may be determined by measurement of Ki values as competitive inhibitors of rat liver fructose-1,6-biphosphatase and by measurement of half-maximal concentrations as allosteric activators of rat liver 6-phosphofructo-1-kinase, both of these tests being in vitro. An in vivo test for the activity of compounds of the invention is the Epinephrine-Induced Hyperglycemic Model (EIHM). In the EIHM, male Sprague-Dawley rats from Charles River Laboratories, average weight 200-280 grams, maintained on Lab-Blox® rat chow (Wayne) and provided water ad libitum were used throughout all studies; rats were fasted 18-24 hours prior to treatment with epinephrine (0.2 mg/kg i.p.) which was given intraperitoneally. Drug or vehicle were given 30 minutes prior to epinephrine. Blood samples were taken from the tail vein for measurement of glucose changes prior to and at 45 and 90 minutes after administration of epinephrine bitartrate (Sigma Co., St. Louis, MO). Blood glucose was determined using Autoflo Glucose (Bio-Dyanamics/bmc, Indianapolis, IN).
1. Rat liver fructose-1,6-biphosphatase inhibition*:
*Methodology as described by S. J. Benkovic, et al. in Biochemistry, Vol. 10, No. 26, pp. 4881-4887 (1971).

6-phosphofructo-1-kinase [2] = target: T2, 6-phosphofructo-1-kinase (Rattus norvegicus, UniProt P30835); assay: Allosteric activation of rat liver 6-phosphofructo-1-kinase; assay type: biochemical; details: rat liver enzyme, in vitro; read-out: half-maximal concentration, allosteric activation
T2 construct: from tissue; host or cells: rat liver
T2 sequence (P30835 2-780 limits assumed): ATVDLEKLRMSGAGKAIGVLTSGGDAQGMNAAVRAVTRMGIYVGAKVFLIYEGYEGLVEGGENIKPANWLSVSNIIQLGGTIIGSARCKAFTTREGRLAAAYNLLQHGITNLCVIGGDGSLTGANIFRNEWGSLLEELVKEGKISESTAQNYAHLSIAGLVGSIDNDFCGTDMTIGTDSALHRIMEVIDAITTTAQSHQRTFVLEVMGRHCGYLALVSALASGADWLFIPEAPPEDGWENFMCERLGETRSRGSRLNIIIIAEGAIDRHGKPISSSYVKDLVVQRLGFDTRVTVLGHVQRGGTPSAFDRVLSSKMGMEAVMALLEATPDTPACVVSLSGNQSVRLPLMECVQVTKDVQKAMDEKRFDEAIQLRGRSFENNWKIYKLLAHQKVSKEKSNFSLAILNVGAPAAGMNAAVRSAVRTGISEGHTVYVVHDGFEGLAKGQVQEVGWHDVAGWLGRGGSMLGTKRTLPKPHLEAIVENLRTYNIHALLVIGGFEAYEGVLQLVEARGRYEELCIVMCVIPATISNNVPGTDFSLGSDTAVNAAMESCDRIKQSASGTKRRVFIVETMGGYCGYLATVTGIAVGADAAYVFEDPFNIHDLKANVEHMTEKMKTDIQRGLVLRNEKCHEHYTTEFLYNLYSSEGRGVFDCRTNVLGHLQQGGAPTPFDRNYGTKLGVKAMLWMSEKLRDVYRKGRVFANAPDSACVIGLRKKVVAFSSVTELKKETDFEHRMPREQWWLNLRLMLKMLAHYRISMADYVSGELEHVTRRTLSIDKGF
From the text: as §1
2. Allosteric activation of rat liver 6-phosphofructo-1-kinase
reported as half-maximal concentrations; methodology as described by S. J. Pilkis, et al. in The Journal of Biol. Chem., Vol. 256, pp. 3171 (1981).

blood glucose = assay: Epinephrine-Induced Hyperglycemic Model (EIHM), in vivo; set-up: species or system male Sprague-Dawley rats; details: for maximum % lowering (blood glucose): 100 mg/kg i.p., given 30 minutes prior to epinephrine (0.2 mg/kg i.p.), fasted rats, glucose at 45 and 90 minutes
From the text: as §1
**reported as maximum % lowering; methodology as described by G. F. Tutwiler in Biochemical Medicine, Vol. 22, pp. 204 (1979).

6-phosphofructo-1-kinase [3] = details: cited from earlier work
[4] = system: fructose-1,6-biphosphatase; details: cited from earlier work

| SMILES | Ki [1] [nM] | EC50 (6-phosphofructo-1-kinase [2]) [nM] | maximum % lowering (blood glucose) (blood glucose) [%] | stimulation of 6-phosphofructo-1-kinase (in words) (6-phosphofructo-1-kinase [3]) | inhibition of fructose-1,6-biphosphatase (in words) [4] | part of the drug effect due to the cyclohexylamine base (blood glucose; cyclohexylamine base used to crystallize Example 1d, Example 1d at 100 mg/kg i.p.) |
| --- | --- | --- | --- | --- | --- | --- |
| O=P(O)(O)OC[C@H]1O[C@@](CO)(OP(=O)(O)O)[C@@H](O)[C@@H]1O [Compound (A), β-D-fructose-2,6-diphosphate, reference compound] | 100 to 200 | 50 | 0 | activates glycolysis by stimulating 6-phosphofructo-1-kinase | deactivates gluconeogenesis by inhibiting fructose-1,6-biphosphatase | – |
| O=P(O)(O)OC[C@H]1O[C@@H](OP(=O)(O)O)[C@@H](O)[C@@H]1O [Example 1d, β-D-Arabinose-1,5-diphosphate] | 3400 | 1000 | 85 | – | – | – |
| O=P(O)(O)OC[C@H]1O[C@H](OP(=O)(O)O)[C@@H](O)[C@@H]1O [Example 2b, α-D-Arabinose-1,5-diphosphate] | 30000 to 40000 | 500 | – | – | – | – |
| NC1CCCCC1 [cyclohexylamine] | – | – | – | – | – | approximately one-half of the drug effect |
